# Experimental data: ChEMBL document CHEMBL1156950, “Synthesis and biological evaluation of 4-anilinoquinolines as potent inhibitors of epidermal growth factor receptor” (J Med Chem, 2010)
# Experiments:
# [1] = biological target: Protein kinase C alpha type (Homo sapiens) (UniProt P17252); experiment: Inhibition of PKCalpha at 10 uM assessed as residual activity by [33P]ATP radioactive filter binding assay relative to control
# [2] = biological target: Rho-associated protein kinase 2 (Homo sapiens) (UniProt O75116); experiment: Inhibition of ROCK2 at 10 uM assessed as residual activity by [33P]ATP radioactive filter binding assay relative to control
# Rho-associated protein kinase 2 (Homo sapiens), sequence (O75116 whole entry, looked up): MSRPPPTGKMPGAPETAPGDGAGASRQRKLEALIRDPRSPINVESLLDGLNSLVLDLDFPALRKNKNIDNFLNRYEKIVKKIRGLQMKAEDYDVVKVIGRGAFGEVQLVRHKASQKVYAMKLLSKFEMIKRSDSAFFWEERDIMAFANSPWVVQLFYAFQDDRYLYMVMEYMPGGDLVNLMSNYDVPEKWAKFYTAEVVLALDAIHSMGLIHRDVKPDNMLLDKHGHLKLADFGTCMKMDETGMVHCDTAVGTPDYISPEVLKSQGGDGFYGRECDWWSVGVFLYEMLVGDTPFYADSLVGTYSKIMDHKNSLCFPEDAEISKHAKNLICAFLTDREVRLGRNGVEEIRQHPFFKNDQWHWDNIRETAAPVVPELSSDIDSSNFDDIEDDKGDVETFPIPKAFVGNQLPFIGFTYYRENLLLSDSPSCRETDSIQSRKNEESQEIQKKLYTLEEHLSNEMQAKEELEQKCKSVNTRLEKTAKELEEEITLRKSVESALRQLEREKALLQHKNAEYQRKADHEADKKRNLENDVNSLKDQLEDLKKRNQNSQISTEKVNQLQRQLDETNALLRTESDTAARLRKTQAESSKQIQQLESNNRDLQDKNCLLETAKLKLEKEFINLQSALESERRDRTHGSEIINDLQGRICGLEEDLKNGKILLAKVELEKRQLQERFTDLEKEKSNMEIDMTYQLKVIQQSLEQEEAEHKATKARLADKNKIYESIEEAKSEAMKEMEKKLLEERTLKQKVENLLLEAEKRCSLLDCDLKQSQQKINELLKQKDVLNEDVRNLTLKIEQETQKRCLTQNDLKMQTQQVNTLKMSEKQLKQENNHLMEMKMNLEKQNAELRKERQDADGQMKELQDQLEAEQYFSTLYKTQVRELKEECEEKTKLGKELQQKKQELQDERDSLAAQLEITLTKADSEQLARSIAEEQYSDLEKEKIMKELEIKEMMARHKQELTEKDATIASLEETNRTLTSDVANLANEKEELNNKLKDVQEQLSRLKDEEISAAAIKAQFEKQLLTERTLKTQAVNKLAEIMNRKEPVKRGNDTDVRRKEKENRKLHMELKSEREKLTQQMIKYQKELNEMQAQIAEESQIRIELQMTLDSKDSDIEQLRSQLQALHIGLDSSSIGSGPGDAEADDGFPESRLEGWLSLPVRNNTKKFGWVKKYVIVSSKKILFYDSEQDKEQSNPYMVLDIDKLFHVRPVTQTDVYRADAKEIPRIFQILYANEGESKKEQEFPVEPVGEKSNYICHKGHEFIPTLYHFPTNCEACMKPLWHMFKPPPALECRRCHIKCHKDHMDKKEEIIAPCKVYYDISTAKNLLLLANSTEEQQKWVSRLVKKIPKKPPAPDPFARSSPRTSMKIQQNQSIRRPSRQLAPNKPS
# [3] = Inhibition of PKA at 10 uM assessed as residual activity by [33P]ATP radioactive filter binding assay relative to control
# [4] = biological target: Mitogen-activated protein kinase 3 (Homo sapiens) (UniProt P27361); experiment: Inhibition of ERK1 at 10 uM assessed as residual activity by [33P]ATP radioactive filter binding assay relative to control
# [5] = biological target: Interleukin-1 receptor-associated kinase 4 (Homo sapiens) (UniProt Q9NWZ3); experiment: Inhibition of IRAK4 at 10 uM assessed as residual activity by [33P]ATP radioactive filter binding assay relative to control
# [6] = biological target: Ephrin type-A receptor 2 (Homo sapiens) (UniProt P29317); experiment: Inhibition of EPHA2 at 10 uM assessed as residual activity by [33P]ATP radioactive filter binding assay relative to control
# [7] = biological target: Proto-oncogene tyrosine-protein kinase Src (Homo sapiens) (UniProt P12931); experiment: Inhibition of Src at 10 uM assessed as residual activity by [33P]ATP radioactive filter binding assay relative to control
# [8] = biological target: Mitogen-activated protein kinase kinase kinase 9 (Homo sapiens) (UniProt P80192); experiment: Inhibition of MLK1 at 10 uM assessed as residual activity by [33P]ATP radioactive filter binding assay relative to control
# Mitogen-activated protein kinase kinase kinase 9 (Homo sapiens), sequence (P80192 whole entry, looked up): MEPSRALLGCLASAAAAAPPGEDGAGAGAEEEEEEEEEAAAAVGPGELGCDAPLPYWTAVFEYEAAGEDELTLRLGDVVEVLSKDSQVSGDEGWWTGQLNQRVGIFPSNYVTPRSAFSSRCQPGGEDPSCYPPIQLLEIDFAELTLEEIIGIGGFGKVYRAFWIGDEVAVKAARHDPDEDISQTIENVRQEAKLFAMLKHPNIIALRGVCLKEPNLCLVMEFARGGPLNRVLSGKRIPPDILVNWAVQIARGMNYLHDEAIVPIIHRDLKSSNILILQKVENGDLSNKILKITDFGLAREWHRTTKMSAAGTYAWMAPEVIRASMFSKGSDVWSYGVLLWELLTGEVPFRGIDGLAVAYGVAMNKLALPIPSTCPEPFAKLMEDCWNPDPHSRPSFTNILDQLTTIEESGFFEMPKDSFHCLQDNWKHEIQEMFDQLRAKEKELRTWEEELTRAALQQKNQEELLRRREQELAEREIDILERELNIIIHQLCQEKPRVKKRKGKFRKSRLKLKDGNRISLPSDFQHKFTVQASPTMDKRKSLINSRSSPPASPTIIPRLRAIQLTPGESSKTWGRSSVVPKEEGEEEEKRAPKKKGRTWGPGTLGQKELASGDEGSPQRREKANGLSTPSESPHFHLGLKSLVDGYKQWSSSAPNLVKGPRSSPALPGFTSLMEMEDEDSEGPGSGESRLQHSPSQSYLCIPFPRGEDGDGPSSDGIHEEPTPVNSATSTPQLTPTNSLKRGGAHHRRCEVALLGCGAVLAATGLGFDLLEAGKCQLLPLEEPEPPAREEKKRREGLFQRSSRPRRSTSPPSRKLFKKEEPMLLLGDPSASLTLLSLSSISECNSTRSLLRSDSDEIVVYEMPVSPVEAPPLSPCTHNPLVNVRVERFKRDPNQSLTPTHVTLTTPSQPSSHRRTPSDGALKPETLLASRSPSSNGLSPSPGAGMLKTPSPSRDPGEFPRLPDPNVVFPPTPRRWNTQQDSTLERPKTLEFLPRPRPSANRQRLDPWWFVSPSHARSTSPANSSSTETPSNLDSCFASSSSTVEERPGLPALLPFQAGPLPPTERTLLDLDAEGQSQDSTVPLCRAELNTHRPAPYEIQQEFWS
# [9] = biological target: Mitogen-activated protein kinase 10 (Homo sapiens) (UniProt P53779); experiment: Inhibition of JNK3 at 10 uM assessed as residual activity by [33P]ATP radioactive filter binding assay relative to control
# [10] = biological target: Serine/threonine-protein kinase 3 (Homo sapiens) (UniProt Q13188); experiment: Inhibition of MST2 at 10 uM assessed as residual activity by [33P]ATP radioactive filter binding assay relative to control
# Serine/threonine-protein kinase 3 (Homo sapiens), sequence (Q13188 whole entry): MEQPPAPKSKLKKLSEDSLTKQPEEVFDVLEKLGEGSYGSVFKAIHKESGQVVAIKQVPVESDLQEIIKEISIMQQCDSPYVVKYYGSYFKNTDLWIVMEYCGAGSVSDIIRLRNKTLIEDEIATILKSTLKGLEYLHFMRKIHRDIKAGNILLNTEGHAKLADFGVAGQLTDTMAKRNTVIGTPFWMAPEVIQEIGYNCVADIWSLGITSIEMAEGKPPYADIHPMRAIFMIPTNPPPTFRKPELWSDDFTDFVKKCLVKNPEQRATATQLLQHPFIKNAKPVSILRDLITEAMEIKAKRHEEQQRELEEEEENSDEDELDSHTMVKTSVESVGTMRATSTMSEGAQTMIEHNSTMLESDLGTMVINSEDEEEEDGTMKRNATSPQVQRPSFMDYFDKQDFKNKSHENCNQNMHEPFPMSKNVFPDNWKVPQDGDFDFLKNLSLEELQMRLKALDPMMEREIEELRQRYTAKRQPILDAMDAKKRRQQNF
# [11] = Inhibition of PHK at 10 uM assessed as residual activity by [33P]ATP radioactive filter binding assay relative to control
# [12] = biological target: SRSF protein kinase 1 (Homo sapiens) (UniProt Q96SB4); experiment: Inhibition of SRPK1 at 10 uM assessed as residual activity by [33P]ATP radioactive filter binding assay relative to control
# [13] = biological target: Inhibitor of nuclear factor kappa-B kinase subunit beta (Homo sapiens) (UniProt O14920); experiment: Inhibition of IKK-beta at 10 uM assessed as residual activity by [33P]ATP radioactive filter binding assay relative to control
# [14] = biological target: Calcium/calmodulin-dependent protein kinase type 1 (Homo sapiens) (UniProt Q14012); experiment: Inhibition of CAMK1 at 10 uM assessed as residual activity by [33P]ATP radioactive filter binding assay relative to control
# Calcium/calmodulin-dependent protein kinase type 1 (Homo sapiens), sequence (Q14012 whole entry, looked up): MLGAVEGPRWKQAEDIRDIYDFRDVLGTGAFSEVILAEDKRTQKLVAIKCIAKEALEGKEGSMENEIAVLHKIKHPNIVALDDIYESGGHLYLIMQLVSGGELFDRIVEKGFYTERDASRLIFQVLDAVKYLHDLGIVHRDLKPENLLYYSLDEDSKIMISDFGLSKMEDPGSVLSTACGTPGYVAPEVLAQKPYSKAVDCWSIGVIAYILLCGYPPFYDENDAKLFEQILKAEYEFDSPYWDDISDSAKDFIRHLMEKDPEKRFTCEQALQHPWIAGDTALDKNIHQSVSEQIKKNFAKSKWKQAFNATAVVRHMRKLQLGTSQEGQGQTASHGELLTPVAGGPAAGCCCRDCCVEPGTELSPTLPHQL
# [15] = biological target: Serine/threonine-protein kinase pim-1 (Homo sapiens) (UniProt P11309); experiment: Inhibition of PIM1 at 10 uM assessed as residual activity by [33P]ATP radioactive filter binding assay relative to control
# [16] = biological target: Dual specificity tyrosine-phosphorylation-regulated kinase 3 (Homo sapiens) (UniProt O43781); experiment: Inhibition of DYRK3 at 10 uM assessed as residual activity by [33P]ATP radioactive filter binding assay relative to control
# [17] = biological target: Casein kinase I isoform alpha (Homo sapiens) (UniProt P48729); experiment: Inhibition of CK1 at 10 uM assessed as residual activity by [33P]ATP radioactive filter binding assay relative to control
# [18] = biological target: Aurora kinase A (Homo sapiens) (UniProt O14965); experiment: Inhibition of Aurora A at 10 uM assessed as residual activity by [33P]ATP radioactive filter binding assay relative to control
# cells [19] = details: Mus musculus, BaF3, 96 h
# [20] = biological target: Serine/threonine-protein kinase MARK2 (Homo sapiens) (UniProt Q7KZI7); experiment: Inhibition of MARK2 at 10 uM assessed as residual activity by [33P]ATP radioactive filter binding assay relative to control
# [21] = biological target: Tyrosine-protein kinase Yes (Homo sapiens) (UniProt P07947); experiment: Inhibition of YES1 at 10 uM assessed as residual activity by [33P]ATP radioactive filter binding assay relative to control
# cells [22] = details: Mus musculus, BaF3, 96 h; remark: listed apart in the source
# Description: Growth inhibition of mouse BA/F3 cells expressing EGFR Del1 and Thr790Met mutant after 96 hrs by cell titer-glo assay
# [23] = biological target: RAC-alpha serine/threonine-protein kinase (Homo sapiens) (UniProt P31749); experiment: Inhibition of PKBalpha at 10 uM assessed as residual activity by [33P]ATP radioactive filter binding assay relative to control
# RAC-alpha serine/threonine-protein kinase (Homo sapiens), sequence (P31749 whole entry): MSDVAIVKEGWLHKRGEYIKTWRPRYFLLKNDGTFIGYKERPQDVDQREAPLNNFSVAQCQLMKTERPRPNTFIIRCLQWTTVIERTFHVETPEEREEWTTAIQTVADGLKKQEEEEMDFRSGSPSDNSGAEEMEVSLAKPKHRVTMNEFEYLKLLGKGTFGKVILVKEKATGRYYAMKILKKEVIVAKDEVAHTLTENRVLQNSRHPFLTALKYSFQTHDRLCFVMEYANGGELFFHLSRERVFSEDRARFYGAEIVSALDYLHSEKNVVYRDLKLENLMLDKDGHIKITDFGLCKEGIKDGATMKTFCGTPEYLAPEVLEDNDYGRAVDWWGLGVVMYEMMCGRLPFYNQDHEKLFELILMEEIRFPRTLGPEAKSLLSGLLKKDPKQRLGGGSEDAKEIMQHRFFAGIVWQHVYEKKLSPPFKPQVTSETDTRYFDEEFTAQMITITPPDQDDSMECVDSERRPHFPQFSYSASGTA
# [24] = biological target: Mitogen-activated protein kinase kinase kinase kinase 2 (Homo sapiens) (UniProt Q12851); experiment: Inhibition of GCK at 10 uM assessed as residual activity by [33P]ATP radioactive filter binding assay relative to control
# [25] = biological target: Mitogen-activated protein kinase 11 (Homo sapiens) (UniProt Q15759); experiment: Inhibition of p38beta at 10 uM assessed as residual activity by [33P]ATP radioactive filter binding assay relative to control
# [26] = biological target: Serine/threonine-protein kinase PAK 6 (Homo sapiens) (UniProt Q9NQU5); experiment: Inhibition of PAK6 at 10 uM assessed as residual activity by [33P]ATP radioactive filter binding assay relative to control
# Serine/threonine-protein kinase PAK 6 (Homo sapiens), sequence (Q9NQU5 whole entry, looked up): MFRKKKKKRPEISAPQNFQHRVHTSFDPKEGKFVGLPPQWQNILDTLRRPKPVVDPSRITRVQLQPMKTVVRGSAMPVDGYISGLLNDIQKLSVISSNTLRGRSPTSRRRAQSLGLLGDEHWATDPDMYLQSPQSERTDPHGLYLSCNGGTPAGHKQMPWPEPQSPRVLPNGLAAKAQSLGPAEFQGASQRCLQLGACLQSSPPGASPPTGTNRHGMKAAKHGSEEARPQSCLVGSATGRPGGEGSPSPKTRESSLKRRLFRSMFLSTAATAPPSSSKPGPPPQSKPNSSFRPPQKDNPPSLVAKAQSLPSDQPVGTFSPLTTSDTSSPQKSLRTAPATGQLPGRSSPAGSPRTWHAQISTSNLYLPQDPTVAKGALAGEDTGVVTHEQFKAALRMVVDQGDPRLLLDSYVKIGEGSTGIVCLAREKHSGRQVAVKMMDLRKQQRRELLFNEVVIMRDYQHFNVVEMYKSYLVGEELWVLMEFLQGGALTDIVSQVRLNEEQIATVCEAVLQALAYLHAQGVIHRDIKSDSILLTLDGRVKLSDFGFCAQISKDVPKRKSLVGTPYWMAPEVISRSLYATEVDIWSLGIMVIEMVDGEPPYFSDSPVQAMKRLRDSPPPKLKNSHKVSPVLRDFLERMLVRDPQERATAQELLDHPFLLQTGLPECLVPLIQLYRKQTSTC
# [27] = biological target: Serine/threonine-protein kinase BRSK2 (Homo sapiens) (UniProt Q8IWQ3); experiment: Inhibition of BRSK2 at 10 uM assessed as residual activity by [33P]ATP radioactive filter binding assay relative to control
# [28] = biological target: Ribosomal protein S6 kinase alpha-3 (Homo sapiens) (UniProt P51812); experiment: Inhibition of RSK2 at 10 uM assessed as residual activity by [33P]ATP radioactive filter binding assay relative to control
# [29] = biological target: Myosin light chain kinase, smooth muscle (Homo sapiens) (UniProt Q15746); experiment: Inhibition of SmMLCK at 10 uM assessed as residual activity by [33P]ATP radioactive filter binding assay relative to control
# [30] = biological target: Mitogen-activated protein kinase 8 (Homo sapiens) (UniProt P45983); experiment: Inhibition of JNK1 at 10 uM assessed as residual activity by [33P]ATP radioactive filter binding assay relative to control
# [31] = biological target: Mitogen-activated protein kinase 9 (Homo sapiens) (UniProt P45984); experiment: Inhibition of JNK2 at 10 uM assessed as residual activity by [33P]ATP radioactive filter binding assay relative to control
# [32] = biological target: Receptor tyrosine-protein kinase erbB-4 (Homo sapiens) (UniProt Q15303); experiment: Inhibition of HER4 at 10 uM assessed as residual activity by [33P]ATP radioactive filter binding assay relative to control
# [33] = biological target: MAP kinase-activated protein kinase 3 (Homo sapiens) (UniProt Q16644); experiment: Inhibition of MAPKAPK-3 at 10 uM assessed as residual activity by [33P]ATP radioactive filter binding assay relative to control
# MAP kinase-activated protein kinase 3 (Homo sapiens), sequence (Q16644 whole entry, looked up): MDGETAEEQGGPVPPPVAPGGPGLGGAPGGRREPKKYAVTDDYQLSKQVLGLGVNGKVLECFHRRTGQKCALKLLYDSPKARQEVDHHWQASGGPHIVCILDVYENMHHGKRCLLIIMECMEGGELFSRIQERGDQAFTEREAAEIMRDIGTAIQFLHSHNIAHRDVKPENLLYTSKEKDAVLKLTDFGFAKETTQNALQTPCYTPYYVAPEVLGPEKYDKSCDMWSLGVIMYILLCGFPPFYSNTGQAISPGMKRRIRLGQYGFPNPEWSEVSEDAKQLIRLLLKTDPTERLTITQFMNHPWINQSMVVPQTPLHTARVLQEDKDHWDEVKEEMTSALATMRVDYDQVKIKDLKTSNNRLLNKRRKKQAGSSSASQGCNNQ
SMILES,Activity [1] [%],Activity [2] [%],Activity [3] [%],Activity [4] [%],Activity [5] [%],Activity [6] [%],Activity [7] [%],Activity [8] [%],Activity [9] [%],Activity [10] [%],Activity [11] [%],Activity [12] [%],Activity [13] [%],Activity [14] [%],Activity [15] [%],Activity [16] [%],Activity [17] [%],Activity [18] [%],GI50 (cells [19]) [nM],Activity [20] [%],other results
CN(C)CCCC(=O)Nc1ccc2ncnc(Nc3cccc(Br)c3)c2c1,78,95,91,83,81,53,44,87,72,90,10,87,90,57,12,27,66,66,< 500,82,Activity [21]: 7%; GI50 (cells [22]): > 5000 nM; Activity [23]: 103%; Activity [24]: 48%; Activity [25]: 81%; Activity [26]: 93%; Activity [27]: 29%; Activity [28]: 78%; Activity [29]: 18%; Activity [30]: 76%; Activity [31]: 77%; Activity [32]: -12%; Activity [33]: 81%
CN(C)CCCC(=O)Nc1ccc2nccc(Nc3cccc(Br)c3)c2c1,81,88,86,82,70,26,13,79,62,80,26,75,62,30,46,32,44,88,< 500,77,Activity [21]: 4%; GI50 (cells [22]): > 500 nM; Activity [23]: 100%; Activity [24]: 30%; Activity [25]: 63%; Activity [26]: 82%; Activity [27]: 36%; Activity [28]: 74%; Activity [29]: 48%; Activity [30]: 49%; Activity [31]: 50%; Activity [32]: -10%; Activity [33]: 72%
